Source: ChEMBL document CHEMBL1140267, “Synthesis and pharmacological evaluation of substituted 5-[4-[2-(6,7-dimethyl-1,2,3,4-tetrahydro-2-oxo-4-quinoxalinyl)ethoxy]phenyl]methylene]thiazolidine-2,4-dione derivatives as potent euglycemic and hypolipidemic agents” (Bioorg Med Chem Lett, 2005)

Legend:
Type in all cases: ADME, organism-based
Details in all cases: in vivo
[1] = Percent decrease in plasma glucose level of wistar rat was determined at 3 mg/kg dosage of the compound; set-up: dose 3 mg/kg
[2] = Percent decrease in triglyceride level of wistar rat was determined at 100 mg/kg dosage of the compound; set-up: dose 100 mg/kg
[3] = Percent decrease in plasma glucose level of wistar rat was determined at 10 mg/kg dosage of the compound; set-up: dose 10 mg/kg
[4] = Percent decrease in plasma glucose level of wistar rat was determined at 30 mg/kg dosage of the compound; set-up: dose 30 mg/kg
[5] = Percent decrease in plasma glucose level of wistar rat was determined at 100 mg/kg dosage of the compound; set-up: dose 100 mg/kg
[6] = Percent decrease in triglyceride level of wistar rat was determined at 3 mg/kg dosage of the compound; set-up: dose 3 mg/kg
[7] = Percent decrease in triglyceride level of wistar rat was determined at 10 mg/kg dosage of the compound; set-up: dose 10 mg/kg
[8] = Percent decrease in triglyceride level of wistar rat was determined at 30 mg/kg dosage of the compound; set-up: dose 30 mg/kg

Decrease [1] | Decrease [2] | Decrease [3] | Decrease [4] | Decrease [5] | Decrease [6] | Decrease [7] | Decrease [8] | Structure (SMILES)
25.24% | 29.73% | 21.69% | 40.26% | 53.96% | 16.87% | 20.36% | 22.46% | Cc1cc2c(cc1C)N(CCOc1ccc(/C=C3/SC(=O)NC3=O)cc1)C(c1ccccc1)C(=O)N2 (stereo unspecified)
43.16% | 43.42% | 42.17% | 58.48% | 69.72% | 23.46% | 32.62% | 40% | Cc1cc2c(cc1C)N(CCOc1ccc(/C=C3/SC(=O)NC3=O)cc1)C(C)C(=O)N2 (stereo unspecified)
50.12% | 54.95% | 52.63% | 69.47% | 81.25% | 49.63% | 44.2% | 49.12% | Cc1cc2c(cc1C)N(CCOc1ccc(/C=C3/SC(=O)NC3=O)cc1)CC(=O)N2
35.73% | 37.46% | 39.21% | 49.62% | 64.26% | 21.73% | 29.69% | 28.82% | Cc1cc2c(cc1C)N(CCCOc1ccc(/C=C3/SC(=O)NC3=O)cc1)C(C)C(=O)N2 (stereo unspecified)
47.65% | 50.1% | 49.11% | 64.76% | 72.33% | 30.36% | 38.13% | 47.35% | Cc1cc2c(cc1C)N(CCCOc1ccc(/C=C3/SC(=O)NC3=O)cc1)CC(=O)N2
18.68% | 22.89% | 19.25% | 26.42% | 38.96% | 10.46% | 10.66% | 14.73% | Cc1cc2c(cc1C)N(CCCOc1ccc(/C=C3/SC(=O)NC3=O)cc1)C(c1ccccc1)C(=O)N2 (stereo unspecified)
41.6% | 46% | 47.25% | 65% | 75.5% | 47% | 35.25% | 41% | CN(CCOc1ccc(CC2SC(=O)NC2=O)cc1)c1ccccn1 (stereo unspecified) [ROSIGLITAZONE]
